In patent publication US6750378B2, “Maize H3C4 promoter combined with the first intron of rice actin, chimeric gene comprising it and transformed plant” (Rhone-Poulenc Agro, priority 1997, dated 2004):

How the values were obtained:
[1] = test system: maize lines transformed according to the invention (H3C4 promoter + first intron of rice actin); experiment: Comparative study of herbicide tolerance, maize lines transformed according to the invention (rice actin intron); type: in vivo; details: 20 maize lines, spraying 200 g of active material per hectare (600 μg per tub)
Protocol: (§1) 800 ml of Fontainebleau sand are placed in a tub of sides 15×20 cm. These tubs are then sprinkled with water and kept moist by supplying a nutrient solution consisting of 5 ml of Quinoligo (Quinoline) per liter of water. Twenty maize seeds are placed in the tubs, which are then treated with isoxaflutole by spraying at a rate of 100 g of active material per hectare (300 μg of active material per tub). The tubs are then cultured in a greenhouse. The phytotoxicity is determined 14 [lacuna] after planting. […] A comparative study was carried out with 20 maize lines transformed according to the invention and 20 maize lines transformed with a corresponding gene for which the sequence encoding the first intron of rice actin has been replaced with the sequence encoding the maize adh I intron. After treating by spraying very high doses of isoxafutole at a rate of 200 g of active material per hectare (600 μg of active material per tub), the following results are obtained: […]

[2] = test system: maize lines transformed with corresponding gene with maize adh I intron; experiment: Comparative study of herbicide tolerance, maize lines transformed with the corresponding gene with maize adh I intron; type: in vivo; details: 20 maize lines, spraying 200 g of active material per hectare (600 μg per tub)
Protocol: as §1

CS(=O)(=O)c1cc(C(F)(F)F)ccc1C(=O)c1cnoc1C1CC1 [isoxaflutole]
lines tolerant [1]: 8/20 | lines tolerant [2]: 3/20
